Data as given in patent publication US8952025B2, “Multifunctional radical quenchers and their uses” (Arizona Board of Regents, A Body Corporate of the State of …, priority 2010, dated 2015).
Entries after “also recorded” stand apart in the source; their conditions may differ. Like-named read-outs stand apart in the source and are kept apart here.

Experiments:
[1] = C11-BODIPY581/591 oxidation lipid peroxidation assay in liposomes; settings: for quenching of lipid peroxidation (retention of C11-BODIPY581/591 fluorescence): 10 mM AAPH, phospholipid liposomes, phosphate buffer, 40° C.
Experimental: To overcome the problem of spectral overlap using cis-parinaric acid, a fluorescence assay for lipid peroxidation using a lipophilic probe belonging to the BODIPY class of fluorescent dyes was used. C11-BODIPY^581/591 (4,4-difluoro-5(4-phenyl-1,3-butadienyl)-4-bora-3a,4a-diaza-s-indacene-3-propionic acid) fluorescence shifts from red to green upon oxidation. C11-BODIPY^581/591 (Molecular Probes, Eugene, Oreg., USA) stock solution concentrations were determined by measuring the absorption of C11-BODIPY^581/591 at 582 nm using a molar extinction coefficient of 140,000 mol^−1 cm^−1(R. P. Haugland, (1999) Handbook of Fluorescent Probes and Research Chemicals, Molecular Probes, Inc., Eugene, Oreg.). The lipid peroxidation inducer 2,2′-Azobis (2-amidino-propane dihydrochloride) (AAPH) and the antioxidant compound α-tocopherol were obtained from Sigma (St. Louis, Mo., USA). Phospholipid bilayers were prepared from 1-stearoyl-2-oleoyl-phosphatidylcholine (SOPC) and 1,2-dilinoleoyl-phosphatidylcholine (DLPC) and were purchased from Avanti® polar lipids, INC (Alabaster, Ala., USA).
Phosphotidylcholine (PC) liposomes were prepared as described before (Guey-Shuang et al. (1982) Lipids. 17, 403-413). Briefly, DLPC (25 mg) and SOPC (25 mg) were dissolved in chloroform and the solvent was removed by nitrogen evaporation (˜2 hours to give a thin film of PC in a round bottom flask. The lipid film was hydrated with 50 mL of 10 mM Tris-HCl (pH 7.4), 100 mM KCl, shaken and sonicated for 15 seconds. The liposomes obtained were filtered several times through 0.2 μM membrane filter.
C11 BODIPY^581/591 was incorporated into liposomes and oxidized by peroxyl radicals derived from the decomposition of AAPH in presence and absence of the compounds. […] Liposomes were pre-incubated for 10 min with 200 nM C11 BODIPY^581/591 to allow their incorporation into the lipid phase of the liposomes. After the addition of AAPH (10 mM) the decay of red fluorescence was followed at λ exc=570 nm, λ em=600 nm. Relative fluorescence units were normalized to 100% intensity. Results obtained were verified by repeating experiments N=3 independent experiments.

FRDA fibroblasts = assay: Calcein-AM cell viability assay, BSO-treated FRDA fibroblasts; type: cell-based, human; settings: for protection of FRDA fibroblasts from oxidative damage (cell viability): BSO-treated FRDA fibroblast; for EC50: BSO-treated FRDA fibroblasts, calcein-AM fluorescence, read-out: EC50 (effective concentration that prevents 50% of cell death)
Experimental: A cell viability assay using the dye calcein acetoxymethyl (AM) was used to determine the effects of invention compounds on GSH-mediated cell death in primary FRDA patient derived fibroblasts (Jauslin et al. (2002) Human Molecular Genetics. 11, 3055-3063) FRDA fibroblasts were treated with L-buthionine (S,R)-sulfoximine (BSO) to inhibit de novo synthesis of GSH (Griffith et al. (1979) J. Biol. Chem. 254, 7558-7560) causing oxidative stress, plasma membrane damage and cell death. Fibroblasts from Friedreich Ataxia patients, but not control cells, die after GSH depletion on incubation with BSO (Jauslin et al. (2002) Human Molecular Genetics. 11, 3055-3063). Cell viability was determined using calcein-AM (Molecular Probe, Eugene, Oreg.). In live cells, non-fluorescent calcein AM is hydrolyzed by intracellular esterases to produce the strongly green fluorescent anion calcein.
Cell culture and reagents: Primary fibroblasts were derived from a patient donor with a molecular diagnosis of FRDA and control donor with no mitochondrial disease. These cell lines were obtained from Coriell Cell Repositories (Camden, N.J., USA; catalog numbers GM04078 and GM08402, respectively). Fibroblasts were cultured in 64% (v/v) Eagle's Minimal Essential Medium (MEM), no phenol red with Eagle's balanced salt (EBS) and 25% M199 with EBS (GIBCO, Grand island, N.Y., USA) supplemented with 10% (v/v) Fetal Calf Serum (HyClone, South Logan, Utah, USA), 1% penicillin-streptomycin mix antibiotics (Cellgro, Manassan, Va., USA), 10 ng/mL insulin (Sigma, St. Louis, Mo., USA), 10 ng/mL basic fibroblast growth factor βFGF (Lonza, Walkersville, Md., USA) and 2 mM glutamine (HyClone, South Logan, Utah, USA). BSO (L-buthionine (S,R)-sulfoximine) and (+)-alpha-tocopherol were purchased from Sigma Chemicals and calcein AM was purchased from Molecular Probes. Cell were grown in 75 cm^2 culture flasks (T75) and incubated at 37° C. in a humidified atmosphere of 5% CO2 in air. Cells were fed twice a week and split every third day at a ratio of 1:3 upon reaching confluency. The invention compounds and reduced and oxidized forms of idebenone and alpha-tocopherol were reconstituted in DMSO or ethanol to provide 2.5 mM stock solutions.
Intervention compounds were screened according to the previous protocol (Jauslin et al. (2002) Human Molecular Genetics. 11, 3055-3063): Fibroblasts were seeded in 96 well microtiter black-walled cell culture plates (Costar, Corning, N.Y., USA) at a density of 3000 cells per well (100 μL). The plates were incubated overnight at 37° C. in a humidified atmosphere of 5% CO2 in air to allow attachment of the cells to the culture plate. Serial dilutions of intervention and references compounds were made from their respective stock solutions to give a total volume of 150 μL in each well. Plates were incubated overnight in cell culture. The following day, 50 μL of a 4 mM BSO solution (in culture media) was added to each well to provide a final BSO concentration of 1 mM. Cell viability was assessed after first signs of toxicity appeared in BSO-treated cells (typically after 24-30 hours) by examining cultures under phase-contrast microscopy. The cell culture medium was discarded by aspiration and each well of the cell culture plate washed with pre-warmed HSSB to remove serum esterase activity. Cells were then treated in with 200 μL of 1.2 μM calcein-AM in HSSB for 60 min at 37° C. in the dark to allow the dye to enter the cell and be cleaved by esterases. The negative control/background was 200 μL of HSSB buffer. Fluorescence intensities were measured with a Spectramax M5 spectrofluorometer (Molecular Devices, Sunnyvale, Calif., USA) using excitation and emission of 485 nm and 525 nm respectively. The intervention compounds were assayed in triplicate. […] The viability of non-BSO treated fibroblasts was set as 100%, and the viability of the BSO-treated and sample-treated cells was calculated relative to this value. […]

| Structure (SMILES) | quenching of lipid peroxidation (retention of C11-BODIPY581/591 fluorescence) [1] | protection against lipid peroxidation ([1]; compound 15 μM, AAPH, liposomes) | protection of FRDA fibroblasts from oxidative damage (cell viability) (FRDA fibroblasts) | EC50 (FRDA fibroblasts; Homo sapiens, Fibroblast) | EC50 (FRDA fibroblasts) |
| --- | --- | --- | --- | --- | --- |
| Cc1nc(N(C)C)nc(CCCCCCCCCCO)c1O [Compound A, 2-N,N-dimethylamino-5-hydroxy-4-methyl-6-(10-hydroxydecyl)-pyrimidine] | more effective in preventing lipid peroxidation than idebenone and its reduced form (Idebenol); also recorded: much more effective than idebenone and its reduced form in preventing lipid peroxidation | complete protection | more effective than idebenone | 390 ± 28 nM |  |
| Cc1nc2c(c(CC[C@](C)(O)CCC[C@H](C)CCC[C@H](C)CCCC(C)C)c1O)CCN2C [Compound C, 4-((3R,7R,11R)-3-hydroxy-3,7,11,15-tetramethylhexadecyl)-1,6-dimethyl-2,3-dihydro-1H-pyrrolo[2,3-b]pyridine-5-ol] | prevent lipid peroxidation in a concentration-dependent fashion with scavenging activity much higher than α-tocopherol; also recorded: prevents lipid peroxidation in a concentration-dependent fashion with scavenging activity much greater than that of α-tocopherol and compound C redox core; also recorded: much more effective than α-tocopherol in quenching lipid peroxidation |  | slightly more effective than α-tocopherol | 833 ± 75 nM |  |
| COC1=C(OC)C(=O)C(CCCCCCCCCCO)=C(C)C1=O [idebenone, reference compound] |  |  |  | 710 ± 80 nM |  |
| Cc1c(C)c2c(c(C)c1O)CC[C@@](C)(CCC[C@H](C)CCC[C@H](C)CCCC(C)C)O2 [α-tocopherol, reference compound] |  |  |  |  | 1030 ± 116 nM |
